According to patent US20250251402A1, “METHODS OF DETECTING MOLECULAR AGGREGATES USING IMAGE CORRELATION SPECTROSCOPY (ICS)” (The General Hospital Corporation, priority 2022, published 2025):

How the values were obtained:
[1] = test system: OVCA429 cells; assay: RAD51 immunofluorescence in OVCA429 cells (Imaris Spots, ICS DA); format: cell-based
Source text: (§1) For the ICS analysis, nuclei were segmented from the DAPI channel using a watershed approach in MATLAB. Briefly, we applied a difference of gaussians for size-based feature extraction of nuclei in the image (upper gaussian σ=100, lower gaussian σ=2-5 dependent on cell size). This feature enhanced image was then binarized to create a primary mask (using the function imbinarize) and connected components under 100 pixels were removed (using the function bwareaopen). We then created a distance transform of the resulting binary image (using the function bwdist). Seed points were determined by finding the regional maximum of a gaussian filtered image, with a gaussian σ of appropriate size for seed point detection (σ×7 or 8 dependent on cell size). […]
(§2) Using the nucleus masks, we performed ICS analysis on the antibody-stained channel, within size limitations for a nucleus (objects >400 and <2400 pixels). Intensity, DA and TNOP were calculated for each cell. […]
(§3) Imaris spots analysis were performed with Imaris 9.8 with background subtraction, using a spot size of 1 μm that was measured from the smallest distinguishable foci from the control image. […] In each dataset, the automatic “quality” threshold was determined from the control image and the same threshold was used for every image in the dataset to be able to compare the outputs across datasets. […]

[2] = test system: SKOV3 cells; assay: RAD51 immunofluorescence in SKOV3 cells (Imaris Spots, ICS DA); format: cell-based
Source text: (§4) For the ICS analysis, nuclei were segmented from the DAPI channel using a watershed approach in MATLAB. Briefly, we applied a difference of gaussians for size-based feature extraction of nuclei in the image (upper gaussian σ=100, lower gaussian σ=2-5 dependent on cell size). This feature enhanced image was then binarized to create a primary mask (using the function imbinarize) and connected components under 100 pixels were removed (using the function bwareaopen). We then created a distance transform of the resulting binary image (using the function bwdist). Seed points were determined by finding the regional maximum of a gaussian filtered image, with a gaussian σ of appropriate size for seed point detection (σ×7 or 8 dependent on cell size). The seed points were applied to the distance transform, and we applied the watershed function to the resulting image to obtain masks for each nucleus (extracted using the function regionprops).
(§5) Using the nucleus masks, we performed ICS analysis on the antibody-stained channel, within size limitations for a nucleus (objects >400 and <2400 pixels). Intensity, DA and TNOP were calculated for each cell. In this analysis, since the ROI is defined by the nucleus mask (segmented from nuclear signal using DAPI staining), TNoP represents the total number of particles per nucleus, with the image area being the number of pixels in each nuclear mask.
Imaris spots analysis were performed with Imaris 9.8 with background subtraction, using a spot size of 1 μm that was measured from the smallest distinguishable foci from the control image. For images with multiple nuclei, ImarisCell was used with the detection type “cell and vesicles”, where the nucleus in the DAPI channel was modelled as the “cell” and antibody-labeled foci were modelled as the “vesicles”. This enabled us to count the number of foci per nucleus for multiple cells. In each dataset, the automatic “quality” threshold was determined from the control image and the same threshold was used for every image in the dataset to be able to compare the outputs across datasets. […]

[3] = test system: OVCA429 cells; assay: RPA1 immunofluorescence in OVCA429 cells (Imaris Spots, ICS DA); format: cell-based
Source text: as §1, §2, §3

[4] = test system: OVCA429 cells; assay: γH2AX immunofluorescence in OVCA429 cells (intensity, Imaris Spots, ICS TNoP and DA); format: cell-based
Source text: as §4, §5
(§6) Measurements across experiments were normalized by the control in each dataset. […] Data were plotted in Prism and statistical analysis was performed in Excel.
(§7) Imaris spots analysis were performed with Imaris 9.8 with background subtraction, using a spot size of 1 μm that was measured from the smallest distinguishable foci from the control image. For images with multiple nuclei, ImarisCell was used with the detection type “cell and vesicles”, where the nucleus in the DAPI channel was modelled as the “cell” and antibody-labeled foci were modelled as the “vesicles”. This enabled us to count the number of foci per nucleus for multiple cells. In each dataset, the automatic “quality” threshold was determined from the control image and the same threshold was used for every image in the dataset to be able to compare the outputs across datasets. Similar to the ICS analysis, only cells with an area between 400-2400 voxels were included for analysis.
(§8) All chemicals were purchased from Sigma unless otherwise noted. All drugs were purchased from Selleck Chemicals. Cells were cultured in media supplemented with 10% fetal bovine serum and 1% penicillin/streptomycin. OVCA429 were originally obtained from Dr. Michael Birrer and cultured in DMEM. SKOV3 was obtained from ATCC and cultured in RPMI. For MMS treatment, cells were incubated for 6 hours before fixation with 4% formaldehyde, whereas for treatment with PARP inhibitors, cells were incubated for 24 hours before fixation.
(§9) Cells were plated in 8-well slides (Fisher) to achieve 50% confluence overnight. Cells were then treated and fixed with 4% formaldehyde in PBS at room temperature for 10 minutes. Antibody staining was performed according to the manufacturers protocol (Cell Signaling Technologies or Abcam). Primary antibodies used were γH2AX (CST, #2577), RPA1 (CST, #2267) and RAD51 (Abcam, 63801), with Anti-rabbit IgG Fab2 Alexa Fluor 647 (CST, #4414) as the secondary fluorescent antibody. After antibody labeling, prolong gold with DAPI (CST) was added and samples were stored for up to 1 week prior to imaging. Confocal imaging was performed on an Olympus FV1000 multiphoton/confocal microscope using an Olympus XLUMPlanFL N 20× objective, NA 1.00 with chromatic correction, and 3× digital zoom. DAPI was excited with a 405 nm laser, while Alexa Fluor 647 was excited with a 635 nm laser. A multiband (DM 405/488/561/633 nm) dichroic mirror was used to direct the excitation laser and collect emission. […]

[5] = test system: SKOV3 cells; assay: RPA1 immunofluorescence in SKOV3 cells (Imaris Spots, ICS DA); format: cell-based
Source text: as §1, §2, §3

[6] = test system: SKOV3 cells; assay: γH2AX immunofluorescence in SKOV3 cells (intensity, Imaris Spots, ICS TNoP and DA); format: cell-based
Source text: as §4, §5, §6, §7, §8, §9

[7] = test system: 53BP1; assay: Autocorrelation (ICS DA) of 53BP1 in phenotypic screen images, cell line not specified; format: cell-based; settings: at least one cell line of A549, WPMY-1, HepG2
Procedure: Images from the original study (8) were accessed through the Image Data Resource (32) API on the Open Microscopy environment. Nuclei were segmented using StarDist (33) on the BFP channel image. Segmented nuclei were then analyzed by image correlation spectroscopy autocorrelation (34) in the TP53BP1 channel and the average degree of aggregation (DA) was calculated. […] Active compounds were defined as having significant (p<0.05) non-zero linear regressions, either negative or positive. The activity score was determine by summing the direction of each active compound and dividing by the total number of compounds in the MoA.
We accessed the original phenotypic screen (8) images through the IDR API on the Open Microscopy server. The screen contained three different cell lines that had endogenous TP53BP1 labeled GFP as a marker protein. We first identified all the images from these three cell lines (>60,000 images in total), then segmented the nuclei of each cell using the BFP channel image. Segmented nuclear regions were then transferred to the TP53BP1 image and image autocorrelation was performed on each nucleus. The degree of aggregation (DA, a measurement of fluorophore clustering) for each nucleus was then averaged to produce an overall image 53BP1 DA that corresponded to the compound and compound concentration. The dataset contained repeats of four different doses for each compound. The activity of each compound in each cell line was then determined by fitting a linear regression to the DA as a function of compound concentration. The slope and significance versus the null hypothesis (slope equal to zero) of DA vs. concentration was then determined. Active compounds were defined as those having a significant (p<0.05) slope of DA vs. concentration.
53BP1 DA is a measure of protein labeled fluorophore clustering within the nucleus. […] Yet, given the highly characterized role of 53BP1 in the DNA damage response (9), recruitment to DNA damage response foci is likely the most prominent driver of measured activity.

[8] = test system: HT1080 cells; assay: 53BP1-mApple condensate anisotropy and intensity in HT1080 cells; format: cell-based; settings: HT1080, increased veliparib concentrations
Procedure: (§10) All fluorescence imaging was performed on an Olympus FV1000 multiphoton/confocal microscope. Anisotropy measurements were performed through custom modifications to the imaging system as previously described (30). Briefly, linear polarization of two photon excitation light at 910 nm (MaiTai femtosecond laser, Spectra Physics) was controlled by a glan-thompson prism and half wave plate. […] was collected in orthogonal orientations through two detectors, parallel and perpendicular to excitation polarization, through a polarizing beam splitter that replaced a dichroic mirror in the emission filter cube. The alignment and detector gain and noise were validated each imaging session through measurements of a standard slide. Images were taken with an Olympus 25× XLPlan N objective, NA 1.05, and 3× digital zoom. Confocal imaging was performed with an Olympus XLUMPlanFL N 20× objective, NA 1.00 with chromatic correction, and 3× digital zoom.
Cells were grown on 12 mm round, uncoated, sterilized glass coverslips in 24-well plates for 24 hours. Cells were treated with PARPi and 100 μM TMZ for 1 hour or 10 nM GMX1778 overnight followed by 100 μM TMZ for 1 hour. […] Images were analyzed in MATLAB. […] Values of segmented nuclei and condensates were determined through the regionprops function. […] The average intensity and anisotropy of each segmented nuclei or condensate was then calculated. […]

[9] = target: PARP (Homo sapiens, UniProt P09874); settings: HT1080, 1 μM PARPi, 500 nM fluorescent olaparib
Procedure: Cells were grown on 25 mm round, uncoated, sterilized glass coverslips in 6-well plates for 24 hours. […] Coverslips were removed from the 6-well plates, mounted onto a perfusion chamber (Warner Instruments), sealed with vacuum grease and perfused with a custom tubing setup. The chamber was then mounted onto the microscope and temperature was maintained at 37° C. using a heating pad and feedback loop. Cells were initially located using fluorescent drug or autofluorescence and allowed to temperature equilibrate on the microscope stage for at least 5 minutes. Images were acquired using the anisotropy configuration as described above. After initial images were acquired, the chamber was perfused with 10× volume of the wash media containing fluorescent drug while chamber media and excess wash media were aspirated out of the chamber with vacuum. Images were then acquired at the desired time points while correcting for any drift. Association of fluorescent drug measurements were performed through rapid addition of media containing fluorescent drug (500 nM) and immediate image acquisition.
Nuclei were segmented in MATLAB and the average nuclear intensity and anisotropy were calculated using the regionprops function. […] Values were then plotted as a function of time, with t=0 when PARPi was removed, in Prism (Graphpad) and a one phase association curve was fit to obtain the binding rate. […]

[10] = target: T1, PARP1 (Homo sapiens, UniProt P09874); settings: average of previous measurements; cited from earlier work
[11] = target: T1, PARP1; assay: PARP1 trapping by chromatin fractionation in HT1080 cells; format: cell-based; settings: HT1080, 100 μM veliparib vs 1 μM talazoparib
Procedure: Lysate was then pelleted by centrifugation at 14,000 g for 15 min at 4° C. Supernatant was transferred to a clean tube and total protein was determined using a BCA assay (Pierce). Protein was loaded into a NuPAGE gel (Thermo Fisher) and transferred to nitrocellulose paper (Thermo Fisher). Blocking and antibody labeling was then carried out according to the antibody manufacturer's protocol. For PAR measurements, cells were treated with TMZ for 1 hour, or 1 μM H2O2 for 10 minutes in 6-well plates. Cells were trypsinized and washed once with PBS prior to cell lysis. Western blot expression levels were quantified by inverting the red channel of an image of the blot in FIJI, subtracting the background intensity and measuring the total intensity of the lane. These values where then normalized to the control signal. […] The media was removed, and cells were scraped off the culture dish in 1 ml PBS. The cells were pelleted by centrifugation at 500 g for 4 minutes at 4° C. and the solution was removed. Pellets were resuspended in 250 μl lysis buffer (10 mM HEPES, 10 mM KCl, 1.5 mM MgCl2, 340 mM sucrose, 10% glycerol, 0.1% Triton X-100, pH 7.9, protease inhibitors (Thermo Fisher)) and incubated on ice for 10 minutes. Nuclei were separated by centrifugation at 1300 g for 5 minutes at 4° C. and the solution was collected (cytoplasm fraction). […]

[12] = target: PARP1-DNA (Homo sapiens, UniProt P09874); settings: from previous findings; cited from earlier work
[13] = target: T1, PARP1; settings: actual rate multiplied by 10^−7 for the stochastic model
Source text: ka (trap): The association constant of PARPi for PARP1. […] Values were taken as an average of previous measurements. […] Values were taken as an average of previous measurements. […] Values were taken as an average of previous measurements.
Association of PARPi to PARP1 (p.ka_trap): The association constant of each PARPi on PARP1. […] Rates were corrected to account for the interpretation of PARP1 concentration relative to DNA through multiplying the actual rate by 10^−7. This rate correction was performed for all association constants.

[14] = test system: HCC1937 cells; assay: 53BP1-mApple condensate anisotropy (homo-FRET) and intensity in HCC1937 cells; format: cell-based; settings: HCC1937, 1 μM PARPi and 100 μM TMZ for 1 hour
Procedure: as §10
Cells were grown on 12 mm round, uncoated, sterilized glass coverslips in 24-well plates for 24 hours. Cells were treated with PARPi and 100 μM TMZ for 1 hour or 10 nM GMX1778 overnight followed by 100 μM TMZ for 1 hour. TMZ was added to stimulate new DNA damage induced condensates in the presence of PARPi or NAD″ depletion. Cells were then transferred to the microscope for anisotropy imaging. Images were analyzed in MATLAB. Nuclei were segmented through intensity thresholding and condensates were segmented through further intensity thresholding with a higher threshold. Values of segmented nuclei and condensates were determined through the regionprops function. Segmentation was corrected through area restrictions to ensure that regions of interest were isolated condensates. The thresholding parameters were consistent throughout experiments. The average intensity and anisotropy of each segmented nuclei or condensate was then calculated. Data were plotted in Prism and analysis performed in Prism or Excel.

T1 sequence (P09874 whole entry, species assumed): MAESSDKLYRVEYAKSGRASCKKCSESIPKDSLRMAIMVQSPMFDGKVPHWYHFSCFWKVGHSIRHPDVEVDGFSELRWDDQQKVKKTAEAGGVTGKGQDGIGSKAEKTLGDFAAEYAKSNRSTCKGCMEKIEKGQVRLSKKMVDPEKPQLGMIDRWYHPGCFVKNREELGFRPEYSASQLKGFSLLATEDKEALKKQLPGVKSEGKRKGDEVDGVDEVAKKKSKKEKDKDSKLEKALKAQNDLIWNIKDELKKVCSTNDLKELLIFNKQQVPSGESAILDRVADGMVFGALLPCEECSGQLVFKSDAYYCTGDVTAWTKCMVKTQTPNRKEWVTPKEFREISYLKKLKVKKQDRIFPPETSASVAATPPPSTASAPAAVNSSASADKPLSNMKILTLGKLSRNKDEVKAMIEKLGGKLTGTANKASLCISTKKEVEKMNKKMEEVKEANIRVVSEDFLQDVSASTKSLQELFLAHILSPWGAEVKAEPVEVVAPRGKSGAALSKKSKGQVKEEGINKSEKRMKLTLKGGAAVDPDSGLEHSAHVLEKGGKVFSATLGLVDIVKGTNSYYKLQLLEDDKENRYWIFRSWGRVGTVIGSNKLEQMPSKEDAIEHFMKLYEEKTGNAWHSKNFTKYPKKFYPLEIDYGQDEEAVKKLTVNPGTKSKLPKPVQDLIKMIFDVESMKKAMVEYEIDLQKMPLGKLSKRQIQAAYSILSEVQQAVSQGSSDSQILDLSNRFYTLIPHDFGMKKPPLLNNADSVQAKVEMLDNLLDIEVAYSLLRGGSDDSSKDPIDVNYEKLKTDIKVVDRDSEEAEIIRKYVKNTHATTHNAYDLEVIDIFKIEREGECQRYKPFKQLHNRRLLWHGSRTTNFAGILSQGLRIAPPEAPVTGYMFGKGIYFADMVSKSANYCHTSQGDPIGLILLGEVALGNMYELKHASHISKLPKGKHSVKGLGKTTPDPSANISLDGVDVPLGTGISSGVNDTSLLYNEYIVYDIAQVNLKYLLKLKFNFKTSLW
Chain of PARP (P09874 2-1014): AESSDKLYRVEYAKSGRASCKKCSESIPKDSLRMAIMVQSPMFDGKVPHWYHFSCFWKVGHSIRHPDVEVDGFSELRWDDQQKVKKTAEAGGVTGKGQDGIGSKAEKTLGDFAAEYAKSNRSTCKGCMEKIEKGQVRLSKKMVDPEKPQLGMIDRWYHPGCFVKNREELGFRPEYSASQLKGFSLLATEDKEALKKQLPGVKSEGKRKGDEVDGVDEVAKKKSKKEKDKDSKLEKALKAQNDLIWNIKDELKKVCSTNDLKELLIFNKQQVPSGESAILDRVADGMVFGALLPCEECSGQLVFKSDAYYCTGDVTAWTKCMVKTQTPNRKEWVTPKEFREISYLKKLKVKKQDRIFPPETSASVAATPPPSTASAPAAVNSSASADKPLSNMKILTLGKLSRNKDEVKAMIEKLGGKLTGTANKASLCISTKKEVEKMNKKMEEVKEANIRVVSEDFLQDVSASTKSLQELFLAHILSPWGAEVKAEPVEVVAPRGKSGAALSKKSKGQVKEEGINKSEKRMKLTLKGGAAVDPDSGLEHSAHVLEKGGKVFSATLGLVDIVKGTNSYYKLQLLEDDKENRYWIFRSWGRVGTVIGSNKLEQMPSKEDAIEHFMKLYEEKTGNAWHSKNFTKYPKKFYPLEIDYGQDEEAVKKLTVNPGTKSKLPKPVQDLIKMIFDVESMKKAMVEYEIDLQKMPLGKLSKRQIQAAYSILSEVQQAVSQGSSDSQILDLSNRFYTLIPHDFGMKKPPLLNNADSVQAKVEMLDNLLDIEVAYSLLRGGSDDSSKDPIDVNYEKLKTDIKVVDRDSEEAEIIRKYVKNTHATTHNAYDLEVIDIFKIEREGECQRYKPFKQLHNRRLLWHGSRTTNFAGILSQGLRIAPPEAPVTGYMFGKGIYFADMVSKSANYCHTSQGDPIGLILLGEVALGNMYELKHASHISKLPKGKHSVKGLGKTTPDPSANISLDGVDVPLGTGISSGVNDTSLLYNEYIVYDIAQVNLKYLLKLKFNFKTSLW
Chain of PARP1-DNA (P09874 whole entry): as the sequence (P09874 whole entry, species assumed) above

COS(C)(=O)=O [MMS, methyl methane-sulfonate]
RAD51 ICS DA, dose dependence [1]: dose dependent increases in aggregation
RAD51 Imaris Spots analysis, dose dependence [1]: did not show an overall MMS dose dependency
RAD51 ICS DA, dose dependence ([2]; SKOV3): dose dependent increases in aggregation
RAD51 Imaris Spots analysis, dose dependence ([2]; SKOV3): did not show an overall MMS dose dependency
RAD51 ICS DA, increase over control ([2]; SKOV3, 1 mM MMS): 3 ×
RPA1 Imaris Spots analysis, dose dependence ([3]; OVCA429): more modest increase with increasing MMS dose
RPA1 ICS DA, increase in aggregation ([3]; OVCA429, 1 mM MMS): exceeding 2.5 × of control
ICS DA of γH2AX, dose dependence ([4]; OVCA429): results similar to Spots analysis
ICS TNoP of γH2AX, dose dependence ([4]; OVCA429): did not produce any MMS dose dependence
Imaris Spots analysis of γH2AX, dose dependence ([4]; OVCA429): captured the MMS dose dependent DNA damage
γH2AX intensity ([4]; OVCA429, 1 mM MMS): drastically increases
RPA1 clustering (Spots analysis and ICS DA), dose dependence [5]: dose dependent increase in RPA1 clustering
ICS degree of aggregation (DA) of γH2AX, dose dependence ([6]; SKOV3): dose dependence
Normalized γH2AX intensity, increase ([6]; SKOV3, highest MMS dose, normalized to untreated control): ~8 ×

Cc1nc2c(O)cccc2c(=O)[nH]1 [NU 1025]
53BP1 DA vs. concentration regression (53BP1 recruitment) [7]: increased 53BP1 recruitment

COc1ccc(C(=O)C2CCN(CC(=O)N(Cc3nc4c(c(=O)[nH]3)COCC4)CC3CC3)CC2)cc1 [NVP-TNKS656]
53BP1 DA vs. concentration regression (53BP1 recruitment) [7]: increased 53BP1 recruitment

C[C@]1(c2nc3c(C(N)=O)cccc3[nH]2)CCCN1 [veliparib]
Condensate 53BP1-mApple intensity [8]: lowered condensate 53BP1-mApple intensity
Apparent dissociation constant (koff) of PARPi in live cells [9]: values similar to those previously determined in purified protein
ka (trap): association constant of PARPi for PARP1 [10]: 1.8e+06 M⁻¹ s⁻¹
kd (trap): dissociation of PARPi from PARP1(-DNA) [10]: 0.005 s⁻¹
PARP1 trapping [11]: unable to reproduce the trapping observed with just 1 μM talazoparib
kd (rel PARPi): dissociation constant of PARPi-PARP1 from DNA [12]: 0.00408 s⁻¹
ICS DA of γH2AX, dose dependence ([4]; OVCA429): full dose dependent increases in γH2AX clustering
Imaris Spots analysis of γH2AX, dose dependence ([4]; OVCA429): failed to capture the full dose dependent DNA damage
γH2AX intensity, dose dependence ([4]; OVCA429, PARP inhibitors): did not show a dose dependence
p.ka_trap: association of PARPi to PARP1, corrected rate [13]: 0.18 M⁻¹ s⁻¹
ICS TNoP of γH2AX, dose dependence ([6]; SKOV3): failed to induce any correlative TNOP dose dependence
Normalized γH2AX intensity ([6]; SKOV3, 1 μM veliparib, 24 hours): slight decrease
ICS DA of γH2AX at 100 μM, compared to respective controls ([6]; SKOV3, 100 μM): higher value than 100 μM olaparib
Number of γH2AX foci (Imaris Spots) at the highest dose of PARP inhibitor ([6]; SKOV3, highest dose): higher
53BP1-mApple condensate anisotropy vs control [14]: not
